Results reported in paper PMC10534827 (Pharmaceuticals, 2023).

How the values were obtained:
[1] = DPPH radical scavenging activity; settings: 300 μL of 5 mM compound in MeOH, 30 min, 517 nm
Description: The DPPH (2,2-diphenyl-1-picryl-hydrazyl-hydrate) free radical scavenging activity method is based on the neutralization of the DPPH radical by an antioxidant.
Free radical scavenging activity was measured using DPPH method [69, 70] with slight modification. Here, 300 μL of 5 mM solutions of tested compounds in MeOH were added to 2 mL methanolic solution of DPPH (2 mg/mL). […] Results were evaluated as percentage scavenging of radical:DPPH radical scavenging activity (%) = ((Abscontr. − Abssample)/Abscontr.) ×100, where Abscontr. is the absorbance of DPPH radical with 300 μL MeOH, Abssample is the absorbance of DPPH radical solution mixed with sample. BHT was used as positive control.

[2] = target: T1, butyrylcholinesterase from equine serum (Equus caballus, UniProt P81908); assay: biochemical
T1 construct: butyrylcholinesterase from equine serum; purchased Sigma-Aldrich, Hamburg, Germany; host or cells: equine serum
Description: (§1) AChE and BChE inhibitory activity was measured using the microplate assay described by Ellman et al. [68] with the modifications added by López et al. [36]. The compounds were tested at concentrations between 10^−3 and 10^−8 M. First, all compounds were dissolved in 1% DMSO in a concentration of 1 mg/mL.
(§2) Incubation of the plates was performed at room temperature for 30 min. Then, 100 μL of substrate solution were added to start the enzymatic reaction. […] Enzyme activity was calculated as an inhibition percentage compared to an assay including buffer instead of an inhibitor. […] All data were analyzed with the software package Prism 3 (Graph Pad Inc., San Diego, CA, USA).

[3] = Lipid peroxidation in linoleic acid system, FTC method; settings: 10 mM compound, 500 nm
[4] = test system: SH-SY5Y cells; assay: MTT cytotoxicity, SH-SY5Y; assay type: cell-based, human; settings: Homo sapiens, SH-SY5Y; MTT, 72 h exposure; read-out: SH-SY5Y IC50
[5] = PAMPA-BBB permeability; assay type: in vitro ADME; settings: experimentally measured BBB permeability
Source text: At the same time, they needed to fulfill the requirement for good BBB permeation in order to achieve sufficient brain exposure. Although transport across the BBB is quite a complex phenomenon, passive diffusion is still the primary route for exogenous substances to access that target. So, the selected compounds were subjected to an in vitro PAMPA-BBB assay, relying on the capacity of the method in distinguishing the candidates with good BBB passive permeabilities. […].
The blood–brain barrier permeabilities were measured by PAMPA Permeability Analyzer (pIONInc, Billerica, MA, USA). The tested compounds and reference standards were prepared as 10 mM stock solutions in DMSO and further diluted in Prisma HT buffer pH 7.4. The experiment followed the BBB Protocol: 200 μL sample’s aliquots in the donor compartment, Brain Sink Buffer aliquots (200 μL) in the acceptor wells, BBB-1 lipid for coating the permeation membranes, “sandwich” assembly with the acceptor plate on top of the donor one, and incubation at temperature 25 °C for 4 h under humidity control without stirring. For permeability assessment, UV spectra of the blank, reference, donor, and acceptor plates were collected at wavelength 250–500 nm. […]. Samples were analyzed in triplicate and average values were reported. […]. Theophylline, corticosterone, and propranolol HCl were used as reference standards to control the quality and consistency of the BBB permeability experiment.

[6] = target: T2, Acetylcholinesterase from Electrophorus electricus (Electrophorus electricus, UniProt O42275); assay: biochemical; assay type: biochemical
T2 construct: purchased Sigma-Aldrich, Hamburg, Germany
T2 sequence (O42275 24-633): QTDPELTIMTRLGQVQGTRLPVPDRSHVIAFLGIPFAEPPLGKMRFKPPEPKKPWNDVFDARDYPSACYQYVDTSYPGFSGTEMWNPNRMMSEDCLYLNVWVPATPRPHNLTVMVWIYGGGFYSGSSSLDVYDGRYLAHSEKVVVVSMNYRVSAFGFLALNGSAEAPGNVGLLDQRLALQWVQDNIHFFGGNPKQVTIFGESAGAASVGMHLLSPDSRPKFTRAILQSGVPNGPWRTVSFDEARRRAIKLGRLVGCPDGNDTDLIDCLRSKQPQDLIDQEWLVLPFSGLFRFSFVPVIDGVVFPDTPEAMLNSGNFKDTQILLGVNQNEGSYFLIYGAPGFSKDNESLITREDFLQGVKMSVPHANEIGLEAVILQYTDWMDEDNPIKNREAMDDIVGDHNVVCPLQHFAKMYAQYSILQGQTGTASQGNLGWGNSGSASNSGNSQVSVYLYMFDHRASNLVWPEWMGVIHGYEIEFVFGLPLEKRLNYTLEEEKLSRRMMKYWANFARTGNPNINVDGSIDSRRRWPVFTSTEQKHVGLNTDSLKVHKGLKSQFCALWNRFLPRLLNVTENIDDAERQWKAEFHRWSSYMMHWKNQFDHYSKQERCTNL
Description: as §1, §2

[7] = test system: Neuro-2a cells; assay: MTT cytotoxicity, Neuro-2a; assay type: cell-based, murine; settings: Mus musculus, N2a; MTT, 72 h exposure; read-out: Neuro-2a IC50
[8] = Ferric reducing antioxidant power (FRAP); settings: 150 μL of 5 mM compound, 30 min, 593 nm, Trolox equivalent
[9] = test system: CCL-1 cells; assay: MTT cytotoxicity, CCL-1 normal fibroblasts; assay type: cell-based, murine; settings: Mus musculus, Fibroblast; MTT, 72 h exposure; read-out: CCL-1 IC50
[10] = ABTS radical scavenging assay; settings: 734 nm after 5 min
Description: These compounds were also tested for their antioxidant activities by using the ABTS [2,2′-azinobis (3-ethylbenzothiazoline-6-sulfonic acid)] cation radical decolorization method (Table 4). The BHT [41] was used for comparison. The ABTS cation radical is produced by oxidation of the ABTS molecule with strong oxidizing agents, such as potassium persulfate in water.
For ABTS assay, the procedure followed the method of Arnao et al. [71] with some modifications. […] The working solution was then prepared by mixing the two stock solutions in equal quantities and allowing them to react for 14 h at room temperature in the dark. […] A fresh ABTS solution was prepared for each assay. […] The ABTS scavenging capacity of the compound was calculated as follows:ABTS radical scavenging activity (%) = ((Abscontr. − Abssample)/Abscontr.) ×100, where Abscontr. is the absorbance of DPPH radical with 300 μL MeOH, Abssample is the absorbance of DPPH radical solution mixed with the sample. […] BHT was used as positive control.

T1 sequence (P81908 whole entry): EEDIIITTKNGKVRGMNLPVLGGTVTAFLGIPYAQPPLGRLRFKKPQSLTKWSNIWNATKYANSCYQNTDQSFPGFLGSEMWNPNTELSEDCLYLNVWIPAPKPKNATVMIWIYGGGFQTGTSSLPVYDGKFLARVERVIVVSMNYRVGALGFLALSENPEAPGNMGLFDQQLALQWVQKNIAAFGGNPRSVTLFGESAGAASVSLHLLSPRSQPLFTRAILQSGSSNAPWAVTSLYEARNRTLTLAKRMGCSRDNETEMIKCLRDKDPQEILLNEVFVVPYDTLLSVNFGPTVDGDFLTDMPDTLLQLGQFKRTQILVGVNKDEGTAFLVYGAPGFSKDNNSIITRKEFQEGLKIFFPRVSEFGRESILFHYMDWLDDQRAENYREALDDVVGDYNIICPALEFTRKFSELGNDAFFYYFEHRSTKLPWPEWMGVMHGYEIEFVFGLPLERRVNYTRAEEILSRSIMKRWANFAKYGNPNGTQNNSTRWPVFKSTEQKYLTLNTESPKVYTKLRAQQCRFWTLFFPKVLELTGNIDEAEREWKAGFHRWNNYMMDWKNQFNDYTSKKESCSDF

In the case of O=S(=O)(N/N=C/C1CCN(Cc2ccccc2)CC1)c1ccccc1 [5a, N’-[(E)-(1-benzylpiperidin-4-yl)methylidene]benzenesulfonohydrazide], the “DPPH Activity” value [1] is reported as 6.56 ± 0.78%, the inhibition at 1000 µM ([2]; 1 mM solution of the tested compound, read-out: Activity [%] (inhibition percentage of BChE)) is reported as 79.4% and the IC50 ([2]; mean ± SD of three experiments, read-out: BChE IC50) is reported as 259 ± 4.9 µM. The “Absorbance Day 1” value ([3]; Day 1) was 0.83 ± 0.02, the “Absorbance Day 2” value ([3]; Day 2) was 0.88 ± 0.08 and the “Absorbance Day 3” value ([3]; Day 3) was 0.89 ± 0.04. The “Absorbance Day 4” value ([3]; Day 4) was 1.00 ± 0.04, the “Absorbance Day 5” value ([3]; Day 5) was 1.10 ± 0.05 and the IC50 [4] was 142 ± 13.1 µM. The “PAMPA BBB −logPe” value [5] was 4.749, the inhibition at 1000 µM ([6]; 1 mM solution of the tested compound, read-out: Activity [%] (inhibition percentage of AChE)) was 77% and the IC50 ([6]; mean ± SD of three experiments, read-out: AChE IC50) was 163 ± 10.7 µM. The IC50 [7] was greater than 300 µM, the FRAP [8] was 17.48 ± 0.90 μMTE and the IC50 [9] was 157 ± 8.5 µM. The “ABTS Activity” value [10] was 43.80 ± 0.23% and the IC50 [10] was greater than 5000 µM.
